Reference: patent US9708334B2, “Substituted 2,4,5,6-tetrahydropyrrolo[3,4-c]pyrazole and 4,5,6,7-tetrahydro-2H-pyrazolo[4,3-c]pyridine compounds as GlyT1 inhibitors” (DART NEUROSCIENCE (CAYMAN) LTD., priority 2014, dated 2017)

Biological target: T1, GlyT1 (Homo sapiens, UniProt P48067)
T1 construct: expressed in transfected cells
T1 sequence (P48067 1-706): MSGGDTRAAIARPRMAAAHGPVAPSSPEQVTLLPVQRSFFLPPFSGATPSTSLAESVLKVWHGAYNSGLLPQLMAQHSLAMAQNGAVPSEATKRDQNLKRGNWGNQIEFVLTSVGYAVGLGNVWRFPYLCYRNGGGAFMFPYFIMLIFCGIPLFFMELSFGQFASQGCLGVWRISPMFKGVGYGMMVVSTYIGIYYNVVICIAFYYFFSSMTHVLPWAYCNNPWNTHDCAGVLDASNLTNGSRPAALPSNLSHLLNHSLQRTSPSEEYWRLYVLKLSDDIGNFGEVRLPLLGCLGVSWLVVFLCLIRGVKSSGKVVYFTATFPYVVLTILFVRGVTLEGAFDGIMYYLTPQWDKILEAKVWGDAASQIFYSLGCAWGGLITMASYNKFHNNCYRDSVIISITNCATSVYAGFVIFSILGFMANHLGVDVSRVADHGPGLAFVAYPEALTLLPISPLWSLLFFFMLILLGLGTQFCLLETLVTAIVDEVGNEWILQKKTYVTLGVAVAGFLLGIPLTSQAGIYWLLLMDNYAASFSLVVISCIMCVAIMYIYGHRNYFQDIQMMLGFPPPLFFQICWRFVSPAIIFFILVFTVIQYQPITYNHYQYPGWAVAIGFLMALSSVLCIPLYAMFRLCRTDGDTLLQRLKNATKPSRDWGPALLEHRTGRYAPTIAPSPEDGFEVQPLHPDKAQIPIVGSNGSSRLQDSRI
Assay: Glycine Transporter 1 (GlyT1) uptake assay, scintillation proximity assay of [14C]-glycine uptake
Assay type: cell-based
Conditions: SPA, four parameter logistic fit, read-out: GlyT1 (pIC50) (converted)
Summary of the method: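 [14C]-glycine uptake read by scintillation proximity on a plate counter. IC50 from four-parameter logistic fit of dose-response data.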

IC50	SMILES
< 100 nM	CC(C)COc1ccc(S(C)(=O)=O)cc1C(=O)N1Cc2cn(-c3ccc(F)cc3)nc2C1 [Example 574, 2-(4-Fluorophenyl)-5-[5-methanesulfonyl-2-(2-methylpropoxy)benzoyl]-2H 4H 5H 6H-pyrrolo[3,4-c]pyrazole]
< 100 nM	COc1c(C#N)ccc(OC(C)C(F)(F)F)c1C(=O)N1CCc2c(cnn2-c2ccc(F)cc2F)C1 (stereo not shown) [Example 575, 3-[1-(2 4-Difluorophenyl)-1H 4H 5H 6H 7H-pyrazolo[4,3-c]pyridine-5-carbonyl]-2-methoxy-4-[(1 1 1-trifluoropropan-2-yl)oxy]benzonitrile]
< 100 nM	COc1c(C#N)ccc(OC(C)C(F)(F)F)c1C(=O)N1CCc2nn(-c3ccc(F)cc3)c(C(F)(F)F)c2C1 (stereo not shown) [Example 576, 3-[2-(4-Fluorophenyl)-3-(trifluoromethyl)-2H 4H 5H 6H 7H-pyrazolo[4,3-c]pyridine-5-carbonyl]-2-methoxy-4-[(1 1 1-trifluoropropan-2-yl)oxy]benzonitrile]
100 to 1000 nM	COc1c(C#N)ccc(OC(C)C(F)(F)F)c1C(=O)N1CCc2c(c(C(F)(F)F)nn2-c2ccc(F)cc2)C1 (stereo not shown) [Example 577, 3-[1-(4-Fluorophenyl)-3-(trifluoromethyl)-1H 4H 5H 6H 7H-pyrazolo[4,3-c]pyridine-5-carbonyl]-2-methoxy-4-[(1 1 1-trifluoropropan-2-yl)oxy]benzonitrile]
